We go through 2 compounds from patent US6583136B1, “Antifungal ethers” (Janssen Pharmacuetica N.V., priority 1999, dated 2003).

A value given as a limit tells only on which side of the number the result lay.

The nature of series [1]: Water solubility in citric acid/Na2HPO4 buffered water. In kind it is physicochemical. Particulars: water buffered with citric acid/Na2HPO4, aqueous buffer, thermodynamic from solid, UV spectroscopy. The method, then: An excess of compound was added to water buffered with 0.1 M citric acid and 0.2 M Na2HPO4 in a ratio of 61.5/38.5 (pH=4). The mixture was shaken during 1 day at room temperature. The precipitate was filtered off.

Series [2] concerns Trichophyton mentagrophytes. Kind of series: Determination of fungal susceptibility (MIC). In kind it is cell-based. Particulars: CYG medium, 5 days at 30° C., growth to 35% of control or less. The method, then: (§1) A panel of Candida isolates plus single isolates of the dermatophytes Microsporum canis, Trichophyton rubrum and Trichophyton mentagrophytes; Aspergillus fumigatus, and Cryptococcus neoformans were used to evaluate the activity of the test compounds in vitro. Inocula were prepared as broth cultures (yeasts) or as suspensions of fungal material made from agar slope cultures (moulds). The test compounds were pipetted from dimethylsulfoxide stock solution into water to provide a series of 10-fold dilutions. The fungal inocula were suspended in the growth medium CYG (F. C. Odds, Journal of Clinical Microbiology, 29, 2735-2740, 1991) at approximately 50,000 colony-forming units (CFU) per ml and added to the aqueous test drugs. The cultures were set up in the 96 wells of plastic microdilution plates and they were incubated for 2 days at 37° C. (Candida spp.) or for 5 days at 30° C. (other fungi). Growth in the microcultures was measured by their optical density (OD) measured at a wavelength of 405 nm. The OD for cultures with test compounds was calculated as a percentage of the OD for control cultures, i.e. the OD for cultures without test compounds. Inhibition of growth to 35% of control or less was recorded as significant inhibition.
(§2) Minimal inhibitory concentration (MIC; in 10^−6 M) of some of the compounds of formula (I) for Candida glabrata, Candida krusei, Candida parapsilosis, Candida albicans, Candida kefyr, Candida tropicalis, Microsporum canis, Trichophyton rubrum, Trichophyton mentagrophytes, Cryptococcus neoformans and Aspergillus fumigatus are listed in table 3.

Another series relates to Candida parapsilosis. Description: Determination of fungal susceptibility (MIC). In kind it is cell-based. Particulars: CYG medium, 2 days at 37° C., growth to 35% of control or less. The method, then:
as §1, §2

The next series concerns Cryptococcus neoformans. Description: Determination of fungal susceptibility (MIC). In kind it is cell-based. Particulars: CYG medium, 5 days at 30° C., growth to 35% of control or less. As for the experimental part: as §1, §2
For a further series, the system named is Candida albicans. Description: Determination of fungal susceptibility (MIC). In kind it is cell-based. Particulars: CYG medium, 2 days at 37° C., growth to 35% of control or less. The method, then:
as §1, §2

Another series concerns Candida glabrata. Kind of series: Determination of fungal susceptibility (MIC). In kind it is cell-based. Particulars: CYG medium, 2 days at 37° C., growth to 35% of control or less. As for the experimental part:
as §1, §2

The subject of another series is Candida kefyr. Description: Determination of fungal susceptibility (MIC). In kind it is cell-based. Particulars: CYG medium, 2 days at 37° C., growth to 35% of control or less. As for the experimental part:
as §1, §2

The subject of a further series is Candida krusei. Kind of series: Determination of fungal susceptibility (MIC). In kind it is cell-based. Particulars: CYG medium, 2 days at 37° C., growth to 35% of control or less. The method, then: as §1, §2
Another series relates to Aspergillus fumigatus. Description: Determination of fungal susceptibility (MIC). In kind it is cell-based. Particulars: CYG medium, 5 days at 30° C., growth to 35% of control or less. The method, then: as §1, §2
Another series has as its system Candida tropicalis. Description: Determination of fungal susceptibility (MIC). In kind it is cell-based. Particulars: CYG medium, 2 days at 37° C., growth to 35% of control or less. The method, then:
as §1, §2

The subject of a further series is Trichophyton rubrum. Description: Determination of fungal susceptibility (MIC). In kind it is cell-based. Particulars: CYG medium, 5 days at 30° C., growth to 35% of control or less. The method, then: as §1, §2
The test system of the next series is Microsporum canis. Description: Determination of fungal susceptibility (MIC). In kind it is cell-based. Particulars: CYG medium, 5 days at 30° C., growth to 35% of control or less. As for the experimental part: as §1, §2

The term solubility denotes the concentration that dissolves in the medium under given conditions. Lower therefore signals little dissolved substance. On to `CC(OCC(N)Cc1ccccc1)C(C)n1ncn(-c2ccc(N3CCN(c4ccc(OCC5COC(Cn6cncn6)(c6ccc(F)cc6F)O5)cc4)CC3)cc2)c1=O` (stereo not drawn) [Compound 3], for which the solubility at 1 day in series [1] (pH 3.65, shaken 1 day at room temperature) was more than 7090 µg/mL. Further, the “MIC values in 10^−6 M” value in series [2] is 1 10^−6 M; in the series on Candida parapsilosis it was <0.01 10^−6 M; against Cryptococcus neoformans it was 0.1 10^−6 M; in the series on Candida albicans, <0.01 10^−6 M; against Candida glabrata, 1 10^−6 M; in the series on Candida kefyr it was <0.01 10^−6 M. In addition, the “MIC values in 10^−6 M” value against Candida krusei was 1 10^−6 M; in the series on Aspergillus fumigatus, 1 10^−6 M; against Candida tropicalis it was 0.1 10^−6 M; in the series on Trichophyton rubrum, 0.1 10^−6 M; in the series with Microsporum canis it was 1 10^−6 M.
`CCC(COCCN(CC)CC)n1ncn(-c2ccc(N3CCN(c4ccc(OCC5COC(Cn6cncn6)(c6ccc(F)cc6F)O5)cc4)CC3)cc2)c1=O` (stereo not drawn) [Compound 5] came in with a solubility at 1 day in series [1] (pH 4.05, shaken 1 day at room temperature) of more than 12000 µg/mL. The “MIC values in 10^−6 M” value in [2] is 10 10^−6 M; in the series with Candida parapsilosis it was <0.1 10^−6 M; against Cryptococcus neoformans, 1 10^−6 M; in the series with Candida albicans, <0.1 10^−6 M; in the series with Candida glabrata, 10 10^−6 M; with Candida kefyr, <0.1 10^−6 M. In addition, the “MIC values in 10^−6 M” value is on record as 10 10^−6 M against Candida krusei; 1 10^−6 M in the series on Aspergillus fumigatus; 1 10^−6 M with Candida tropicalis; 10 10^−6 M against Trichophyton rubrum; <0.1 10^−6 M against Microsporum canis.
